Test results published in patent US20120079612A1, “Dry eye animal model” (West Virginia University, priority 2010, published 2012).

Assays:
[1] = system: female rats; assay: Tear volume, modified Schirmer's test; format: in vivo, Sprague-Dawley rats
Experimental: (§1) Female rats of 9 months of age were ovariectomized and immediately supplemented with 1.5 mg of 17β-estradiol in three, separate 90-day time release pellets until 18 months. Three experimental groups were used with ovaries excised from rats in treatment […] (FIG. 1). Group 1 underwent a sham ovariectomy and was implanted with placebo pellet, Group 2 underwent an ovariectomy and was implanted with placebo pellet, and Group 3 underwent an ovariectomy and was implanted with E2 pellet. The three groups had tear breakup time and tear volume tested. […] The time lapse between the last blink and the first randomly distributed dry spot on the cornea using a portable slit lamp was recorded. The process was repeated 3 times for each subject and the results recorded (FIG. 2). […] Rats received 0.5 uL Fluress onto the eye, then the eye was manually blinked 3 times, and the modified Schirmer's strip was placed in the upper fornix for 5 minutes for assessment of tear volume and the volume was recorded (FIG. 3).
(§2) Female Sprague-Dawley rats, age 15 months, were subcutaneously implanted with placebo pellets and E2 rats received pellets containing 1.5 mg of 17β-estradiol in a 90-day time-release matrix. […] Serum E2 levels were measured from blood collected prior to randomization to treatment groups and again at time of euthanasia. […]

[2] = system: female rats; assay: Tear breakup time (TBUT), Fluress and slit lamp; format: in vivo, Sprague-Dawley rats
Experimental: as §1, §2

[3] = Serum E2 levels; format: in vivo, Sprague-Dawley rats; settings: Example 2: rats at 18 months after 1.5 mg 90-day pellet implanted at 15 months; compared to Intact (placebo) rats
Experimental: Female Sprague-Dawley rats, age 15 months, were subcutaneously implanted with placebo pellets and E2 rats received pellets containing 1.5 mg of 17β-estradiol in a 90-day time-release matrix. Both groups received treatment until they reached 18 months of age. Serum E2 levels were measured from blood collected prior to randomization to treatment groups and again at time of euthanasia. […] Serum E2 levels of rats prior to randomization at 15 months of age (Pre) and two weeks before gland excision, at 18 months of age (Post). […] Also, Tear Volume Assessment and Tear Break-up Time both have been examined in the rats. […] TBUT was also altered by estrogen treatment with E2 rats having a significant reduction in time to first tear disruption compared to Intact rats (16.4±1.1 sec and 33.7±1.9 sec, respectively; p<0.001) (FIG. 5). Tear volume was measured in 18 month old female rats during 3 months of E2 or placebo supplementation. […] (B) Tear break up time was also measured in rats receiving placebo or E2 treatment using fluorescein sodium (0.25%).

[4] = system: women; settings: compared to non-treated women of the same age, the estrogen-alone figure is for women with prior hysterectomy; cited from earlier work
[5] = Example 1: rats ovariectomized at 9 months, 1.5 mg 17β-estradiol 90-day pellets until 18 months, compared to control groups 1 and 2
[6] = Example 2: post-menopausal rats at 18 months, 3 months of E2 supplementation, p<0.001 vs Intact rats

C[C@]12CC[C@@H]3c4ccc(O)cc4CC[C@H]3[C@@H]1CC[C@@H]2O [E2, 17β-estradiol]
tear volume [1, 5]: reduced tear volume
tear volume [1, 6]: 7.4±0.58 mm
tear break up time [2, 5]: shorter tear break up time
TBUT, time to first tear disruption [2, 6]: 16.4 ± 1.1 s
serum E2 levels [3]: significantly elevated

estrogen
increase of KCS [4]: ~70%
